Assay results from publication PMC5756575, “In Vitro Biotransformation, Safety, and Chemopreventive Action of Novel 8-Methoxy-Purine-2,6-Dione Derivatives” (Applied Biochemistry and Biotechnology, 2017).

Key:
[1] = test system: Cunninghamella elegans 1906 DMS; test: Cunninghamella biotransformation assay, C. elegans; type: in vitro ADME; settings: 7-day incubation; for % of compound/metabolite in C. elegans: 0.5 mg/mL, LC-MS/MS; for % of tested (parental) compound metabolized at the end of experiment: C. elegans
Method: (§1) Three different strains of Cunninghamella were used: Cunninghamella echinulata NRRL 1384, Cunninghamella blakesleeana 1908 DMS, and Cunninghamella elegans 1906 DMS. The first was provided by Dr. A.J. Carnell (University of Liverpool, UK), whereas the two remaining were purchased from Deutsche Sammlung von Mikroorganismen und Zellkulturen GmbH (DMSZ, Braunschweig, Germany).
(§2) Cunninghamella strains were cultivated on solid potato dextrose agar (PDA) plates at 28 °C. After 4 days, a liquid fermentation basal medium was prepared by the addition of 6 g of D-glucose, 1.5 g of NaCl, 1.5 g of yeast extract from Saccharomyces cerevisiae, and 1.5 g of K2HPO4 to 300 mL of distilled water. Aliquots of 24.5 mL of medium were inoculated with 300 μL of suspension of fungal spores obtained after wetting colonies in PDA. The fungi were incubated with shaking until the formation of spherical clumps.
(§3) Compounds 2–4 were evaluated in this experiment. Once microorganisms formed spherical clumps in the preliminary incubation, the corresponding tested compound was added to the broth and the mixture was incubated for 7 days. Two control experiments were also performed, in the absence of compound and fungus, respectively. Biotransformation progress was monitored by TLC and by liquid chromatography electrospray ionization-tandem mass spectrometry (LC-MS/MS). Monitoring was performed at four different incubation times: 30 min, 3 days, 5 days, and 7 days.
(§4) To analyze metabolites in LC-MS/MS, an aliquot of 500 μL of filtered sample was taken and extracted with 500 μL of dichloromethane. The organic fraction was dried with sodium sulfate, filtered, and evaporated. The obtained residue was analyzed in LC-MS/MS. At the end of experiment, all the remaining medium was extracted with 25 mL of dichloromethane after separating the fungal clumps by filtration over cellulose filters.
(§5) Agilent 1100 HPLC system (Agilent Technologies, Waldbronn, Germany) equipped with a Xbridge™ C18 analytical column (2.1 × 30 mm, […]; Waters, Dublin, Ireland) was used in the chromatographic separation of LC-MS/MS analysis. An elution gradient of acetonitrile and water, with 0.1% of formic acid, was used as a mobile phase. MS spectra were taken at Applied Biosystems MDS Sciex API 200 triple quadrupole mass analyzer (Concord, Ontario, Canada) with an electrospray ionization (ESI) interface between HPLC and MS.

[2] = test system: Cunninghamella echinulata NRRL 1384; test: Cunninghamella biotransformation assay, C. echinulata; type: in vitro ADME; settings: 7-day incubation; for % of compound/metabolite in C. echinulata: 0.5 mg/mL, LC-MS/MS; for % of tested (parental) compound metabolized at the end of experiment: C. echinulata
Method: as §1, §2, §3, §4, §5

rat liver microsomes = test: Microsomal stability assay; type: in vitro ADME; settings: 97.88 versus 302.00 μL/min/mg
Method: Compounds 1 and 3 were studied in a biotransformation assay using rat liver microsomes following procedures described previously. The reagents used in this assay were levallorphan (internal standard) and NADPH-regenerating system, which contained phosphate buffer (pH 7.4), NADP^+, glucose-6-phosphate, and glucose-6-phosphate dehydrogenase. The final protein concentration in the assay was 0.4 mg/mL. Compounds 1 and 3 were tested at a final concentration of 20 μM.
The amount of a parental compound remaining in a solution after biotransformation was monitored using LC-MS/MS as described previously in “Cunninghamella Biotransformation Assay.” Graphs representing ln of percentage of parent compound remaining versus incubation time were drawn to calculate in vitro half-time (t1/2) from the slope of linear regression. To obtain intrinsic clearance (Clint) of a tested compound in rat liver microsomal assay, t1/2 previously calculated was substituted at the equation Clint = [(Vmic/Pmic) × 0.693/t1/2], being Vmic and Pmic the volume of incubation in microliters and the amount of incubated protein in milligrams, respectively.
as §5

Vibrio harveyi BB7M = settings: 40 ng/mL; for Number of revertants per plate, Mean ± SD: mutagenicity
Method: (§6) From them, 0.2 mM working solutions were prepared by dilution with water. […] Working solutions were prepared by 1:100 dilution of stock solution in water, and final compound concentration assayed was 40 ng/mL.
(§7) Four Vibrio harveyi strains were used in this study: a wild-type BB7 (naturally found in the Baltic Sea) and three genetically modified strains, namely BB7M (obtained by the introduction of pAB1273 plasmid containing the genes mucA and mucB to enhance the error-prone DNA repair), BB7X (hypersensitive to UV radiation after genetic modification with Tn5TpMCS), and BB7XM (containing the two abovementioned modifications). These strains were kindly provided by Prof. G. Węgrzyn (Department of Molecular Biology, University of Gdańsk, Poland).
(§8) It causes point mutations at the genome as it induces G:C → A:T transitions in Vibrio harveyi strains and in other bacteria such as Escherichia coli and S. typhimurium. […] Next, its working solution was prepared in sterile water, being 40 ng/mL its final concentration.
(§9) To perform the V. harveyi mutagenicity test, 10 μL of a working solution of the tested compound (100 μg/mL) were added to V. harveyi bacterial culture (OD600 = 0.1) in NaCl-containing BOSS liquid medium, being 40 ng/mL the final concentration of the tested compound. […] Then, an inoculum containing 5 × 10^6 cells was added to solid BOSS agar plate supplemented with neomycin sulfate at a final concentration of 100 μg/mL. Samples were left incubating 48 h at 30 °C, and revertant colonies were counted manually.

Vibrio harveyi BB7X = settings: 40 ng/mL; for MI (mutagenicity index): mutagenic if MI above 2.0; for Number of revertants per plate, Mean ± SD: mutagenicity
Method: as §6, §7, §8, §9

Vibrio harveyi BB7XM = test: Vibrio harveyi mutagenicity assay, BB7XM; type: cell-based; settings: 40 ng/mL; for MI (mutagenicity index): mutagenic if MI above 2.0; for Number of revertants per plate, Mean ± SD: mutagenicity
Method: as §6, §7, §8, §9

[3] = test system: Salmonella typhimurium TA100; test: S. typhimurium antimutagenicity assay against NQNO; type: cell-based; settings: for Number of revertants per plate, Mean ± SD: antimutagenicity, NQNO line = NQNO as a single compound
Description: In the Ames test, Salmonella typhimurium TA100 strain was used. This strain has a base-pair substitution that can be reverted by mutations at GC pairs. In addition, it contains mutations at uvrB-bio and rfa genes to eliminate excision repair mechanisms and to make the bacteria more permeable to chemicals, respectively. Finally, TA100 also includes pKM101 plasmid, which enhances both chemical and UV-induced mutagenesis via an increase in the error-prone recombinational DNA repair pathway. TA100 strain of S. typhimurium was provided by Dr. T. Nohmi (Division of Genetics and Mutagenesis, National Institute of Hygienic Sciences, Tokyo, Japan). V. harveyi and S. typhimurium bacterial cultures were maintained at 30 and 37 °C, respectively.
as §8
Procedure followed in the V. harveyi antimutagenicity assay was similar to the mutagenicity method described before. […] The results were expressed as the inhibition percentage of mutagenic effect, which was calculated with the formula: 100 − [(R 1/R 2) × 100], where R 1 is the number of revertants per plate in the presence of both mutagen and tested substance, and R 2 is the number of revertants per plate in the presence of mutagen. […] S. typhimurium antimutagenicity assay was based on similar assumptions as the V. harveyi antimutagenicity test. In this case, the chemopreventive activity was determined at two concentrations of a tested compounds and a standard mutagen, i.e., 40 and 500 ng/mL.

[4] = TA100, compound and NQNO 40 ng/mL
[5] = TA100, compound and NQNO 500 ng/mL

| SMILES | % of compound/metabolite in C. elegans [1] | % of tested (parental) compound metabolized at the end of experiment [1] | % of compound/metabolite in C. echinulata [2] | % of tested (parental) compound metabolized at the end of experiment [2] | Clint, fold lower than imipramine (rat liver microsomes) | MI (mutagenicity index) (Vibrio harveyi BB7M; mutagenic if MI above 2.0) | Number of revertants per plate, Mean ± SD (Vibrio harveyi BB7M) | MI (mutagenicity index) (Vibrio harveyi BB7X) | Number of revertants per plate, Mean ± SD (Vibrio harveyi BB7X) | MI (mutagenicity index) (Vibrio harveyi BB7XM) | Number of revertants per plate, Mean ± SD (Vibrio harveyi BB7XM) | % inhibition of NQNO mutagenicity [3, 4] | % inhibition of NQNO mutagenicity [3, 5] | Number of revertants per plate, Mean ± SD [3, 4] | Number of revertants per plate, Mean ± SD [3, 5] |
| --- | --- | --- | --- | --- | --- | --- | --- | --- | --- | --- | --- | --- | --- | --- | --- |
| COc1nc2c(c(=O)n(C)c(=O)n2C)n1CCCC(=O)NCc1ccccc1 [Compound 3, N-benzyl-4-(8-methoxy-1,3-dimethyl-2,6-dioxo-purin-7-yl)butanamide] | 99.4% | 0.6% | 92.4% | 7.6% | 3.09 fold | 1.3 | 35 ± 5 | 1.6 | 35 ± 4 | 1.1 | 35 ± 7 | 96% | 92% | 4 ± 2 | 8 ± 3 |
| COc1nc2c(c(=O)n(C)c(=O)n2C)n1CCCC(=O)N1CCN(c2ccccc2)CC1 [Compound 4, 8-methoxy-1,3-dimethyl-7-[4-oxo-4-(4-phenylpiperazin-1-yl)butyl]purine-2,6-dione] | 47.0% | 53.0% | 12.4% | 87.6% | – | – | 42 ± 11 | 1.2 | 27 ± 7 | 1.2 | 41 ± 9 | 93% | 88% | 6 ± 2 | 11 ± 3 |
